Reference: paper PMC8617627, “Novel DYRK1A Inhibitor Rescues Learning and Memory Deficits in a Mouse Model of Down Syndrome” (Pharmaceuticals, 2021)
Where two headings read alike, the source gives them in different places.

Legend:
Test in all cases: Kinase profile (33P ATP filter binding)
Assay type in all cases: biochemical
Conditions in all cases: read-out: Remaining protein kinase activity
PAK4 = PAK4 (Homo sapiens, UniProt O96013)
Description: (§1) The compounds were diluted to the appropriate concentration. The compounds were added to a “mother plate” consisting of samples, controls, and blanks. These serve as the source for “daughter plates” which are stored at −20 °C until assay initiation. Protein Kinases: Enzyme/Substrate mixture was added to the compound, and the compounds were incubated for five minutes at room temperature (RT). ^33P ATP was added to the compounds to initiate the assay. Orthophosphoric acid was added to the compounds to halt the assay. Assay components were harvested onto P81 filter plates, filter plates were air-dried, scintillation fluid was added to plates, and counts were read on a Topcount NXT. A mean percentage activity was calculated.

DAPK1 = DAPK1 (Homo sapiens, UniProt P53355)
Description: as §1

RIPK2 = RIPK2 (Homo sapiens, UniProt O43353)
Description: as §1

SRPK1 = SRPK1 (Homo sapiens, UniProt Q96SB4)
Description: as §1

LKB1 = biological target: T1, LKB1 (Homo sapiens, UniProt Q15831)
T1 sequence (Q15831 1-433): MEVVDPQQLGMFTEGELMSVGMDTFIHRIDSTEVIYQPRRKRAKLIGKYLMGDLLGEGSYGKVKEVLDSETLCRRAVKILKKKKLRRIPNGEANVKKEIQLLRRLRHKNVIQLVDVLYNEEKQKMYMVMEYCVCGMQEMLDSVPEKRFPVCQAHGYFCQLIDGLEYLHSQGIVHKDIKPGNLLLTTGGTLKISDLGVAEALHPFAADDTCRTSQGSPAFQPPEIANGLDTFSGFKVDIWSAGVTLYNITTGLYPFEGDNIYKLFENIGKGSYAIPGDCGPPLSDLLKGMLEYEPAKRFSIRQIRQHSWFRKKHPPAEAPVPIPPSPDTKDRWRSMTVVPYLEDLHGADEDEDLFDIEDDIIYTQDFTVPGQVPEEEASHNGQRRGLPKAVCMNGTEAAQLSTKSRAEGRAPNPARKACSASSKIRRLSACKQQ
T1 sequence (Q7RTN6 1-431 partner): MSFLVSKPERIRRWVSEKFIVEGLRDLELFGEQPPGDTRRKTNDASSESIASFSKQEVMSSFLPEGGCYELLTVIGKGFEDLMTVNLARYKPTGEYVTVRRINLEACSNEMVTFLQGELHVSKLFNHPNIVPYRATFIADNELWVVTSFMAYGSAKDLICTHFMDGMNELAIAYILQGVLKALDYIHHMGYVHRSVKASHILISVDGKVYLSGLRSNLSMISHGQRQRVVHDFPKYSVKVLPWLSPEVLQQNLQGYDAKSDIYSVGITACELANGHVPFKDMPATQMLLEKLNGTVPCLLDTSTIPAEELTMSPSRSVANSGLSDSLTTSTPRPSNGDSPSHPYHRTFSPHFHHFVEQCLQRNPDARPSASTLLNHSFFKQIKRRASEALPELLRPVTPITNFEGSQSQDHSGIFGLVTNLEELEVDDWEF
T1 sequence (Q9Y376 1-341 partner): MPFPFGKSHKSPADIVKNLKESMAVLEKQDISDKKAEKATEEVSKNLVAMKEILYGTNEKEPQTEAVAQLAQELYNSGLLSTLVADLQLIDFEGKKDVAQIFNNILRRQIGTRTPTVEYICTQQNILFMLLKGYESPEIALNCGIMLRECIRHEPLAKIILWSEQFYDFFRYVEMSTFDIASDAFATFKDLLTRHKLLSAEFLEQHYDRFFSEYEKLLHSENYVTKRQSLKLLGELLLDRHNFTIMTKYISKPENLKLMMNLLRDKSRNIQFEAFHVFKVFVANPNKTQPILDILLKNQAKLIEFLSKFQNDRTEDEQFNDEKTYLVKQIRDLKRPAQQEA
Description: as §1

MST4 = MST4 (Homo sapiens, UniProt Q9P289)
Description: as §1

ULK2 = biological target: T2, ULK2 (Homo sapiens, UniProt Q8IYT8)
T2 sequence (Q8IYT8 1-1036): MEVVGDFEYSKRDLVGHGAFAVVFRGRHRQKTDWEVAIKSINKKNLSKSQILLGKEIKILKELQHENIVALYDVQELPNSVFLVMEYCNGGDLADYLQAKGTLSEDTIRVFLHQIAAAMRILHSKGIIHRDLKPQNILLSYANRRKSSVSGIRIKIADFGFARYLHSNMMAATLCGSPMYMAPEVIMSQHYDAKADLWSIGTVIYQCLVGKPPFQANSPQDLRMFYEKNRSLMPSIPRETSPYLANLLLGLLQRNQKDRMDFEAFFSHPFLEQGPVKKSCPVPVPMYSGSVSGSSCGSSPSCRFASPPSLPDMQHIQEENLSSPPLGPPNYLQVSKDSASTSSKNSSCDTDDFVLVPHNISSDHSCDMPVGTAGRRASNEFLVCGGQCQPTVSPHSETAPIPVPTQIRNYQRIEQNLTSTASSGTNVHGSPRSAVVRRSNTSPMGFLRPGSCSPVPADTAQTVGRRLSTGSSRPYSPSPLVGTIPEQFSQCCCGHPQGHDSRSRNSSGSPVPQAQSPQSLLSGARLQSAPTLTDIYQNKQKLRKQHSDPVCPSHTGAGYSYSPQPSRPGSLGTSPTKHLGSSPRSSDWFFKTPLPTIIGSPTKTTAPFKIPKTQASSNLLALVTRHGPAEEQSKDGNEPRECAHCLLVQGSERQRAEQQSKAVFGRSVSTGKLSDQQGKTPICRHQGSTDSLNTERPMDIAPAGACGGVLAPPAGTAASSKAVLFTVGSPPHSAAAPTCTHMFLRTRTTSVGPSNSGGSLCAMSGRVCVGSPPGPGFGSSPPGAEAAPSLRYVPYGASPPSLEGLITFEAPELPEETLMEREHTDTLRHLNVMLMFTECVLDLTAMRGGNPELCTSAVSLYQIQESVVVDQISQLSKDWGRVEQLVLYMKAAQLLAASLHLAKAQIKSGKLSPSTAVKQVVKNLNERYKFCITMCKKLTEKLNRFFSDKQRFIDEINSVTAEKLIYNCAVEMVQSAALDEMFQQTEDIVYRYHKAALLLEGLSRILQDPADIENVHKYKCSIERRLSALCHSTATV
Description: as §1

Sequence of DAPK1 (P53355 whole entry): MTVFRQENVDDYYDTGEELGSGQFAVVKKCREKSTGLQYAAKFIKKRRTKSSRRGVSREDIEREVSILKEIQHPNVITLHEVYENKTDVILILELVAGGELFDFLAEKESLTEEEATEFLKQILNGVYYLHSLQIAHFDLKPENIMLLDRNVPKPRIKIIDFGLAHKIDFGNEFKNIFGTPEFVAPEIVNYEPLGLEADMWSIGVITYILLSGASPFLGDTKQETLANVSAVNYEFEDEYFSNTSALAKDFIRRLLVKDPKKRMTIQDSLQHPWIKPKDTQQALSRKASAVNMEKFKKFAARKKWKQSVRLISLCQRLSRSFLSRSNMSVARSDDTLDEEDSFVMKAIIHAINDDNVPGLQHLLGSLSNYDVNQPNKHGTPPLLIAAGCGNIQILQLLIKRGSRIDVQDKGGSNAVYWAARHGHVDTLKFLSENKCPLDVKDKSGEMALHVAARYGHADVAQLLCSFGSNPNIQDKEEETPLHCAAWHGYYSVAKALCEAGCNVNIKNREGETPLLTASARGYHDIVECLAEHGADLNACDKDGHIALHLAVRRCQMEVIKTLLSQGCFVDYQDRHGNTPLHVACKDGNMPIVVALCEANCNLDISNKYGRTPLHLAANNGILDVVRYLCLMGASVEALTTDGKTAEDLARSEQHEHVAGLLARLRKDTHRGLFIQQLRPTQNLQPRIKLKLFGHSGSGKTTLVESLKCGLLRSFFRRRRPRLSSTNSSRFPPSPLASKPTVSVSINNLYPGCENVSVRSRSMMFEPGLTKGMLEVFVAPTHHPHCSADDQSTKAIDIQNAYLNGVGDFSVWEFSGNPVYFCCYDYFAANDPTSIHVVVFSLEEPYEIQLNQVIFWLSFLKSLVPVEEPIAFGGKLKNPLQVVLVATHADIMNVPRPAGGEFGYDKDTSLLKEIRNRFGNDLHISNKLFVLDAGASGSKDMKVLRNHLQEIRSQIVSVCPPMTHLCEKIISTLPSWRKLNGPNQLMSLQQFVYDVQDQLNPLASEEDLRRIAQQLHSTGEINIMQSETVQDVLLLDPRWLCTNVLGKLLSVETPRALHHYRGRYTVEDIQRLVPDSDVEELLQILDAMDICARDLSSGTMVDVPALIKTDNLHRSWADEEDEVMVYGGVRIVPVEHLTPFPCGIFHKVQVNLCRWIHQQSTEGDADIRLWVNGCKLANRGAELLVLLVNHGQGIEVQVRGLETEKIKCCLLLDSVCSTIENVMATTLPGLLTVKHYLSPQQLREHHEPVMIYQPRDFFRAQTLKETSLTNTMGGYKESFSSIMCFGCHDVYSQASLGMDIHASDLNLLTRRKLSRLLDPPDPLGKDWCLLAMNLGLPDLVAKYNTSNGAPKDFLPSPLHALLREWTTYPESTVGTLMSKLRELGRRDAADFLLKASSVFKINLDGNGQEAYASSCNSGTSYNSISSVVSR
Sequence of PAK4 (O96013 whole entry): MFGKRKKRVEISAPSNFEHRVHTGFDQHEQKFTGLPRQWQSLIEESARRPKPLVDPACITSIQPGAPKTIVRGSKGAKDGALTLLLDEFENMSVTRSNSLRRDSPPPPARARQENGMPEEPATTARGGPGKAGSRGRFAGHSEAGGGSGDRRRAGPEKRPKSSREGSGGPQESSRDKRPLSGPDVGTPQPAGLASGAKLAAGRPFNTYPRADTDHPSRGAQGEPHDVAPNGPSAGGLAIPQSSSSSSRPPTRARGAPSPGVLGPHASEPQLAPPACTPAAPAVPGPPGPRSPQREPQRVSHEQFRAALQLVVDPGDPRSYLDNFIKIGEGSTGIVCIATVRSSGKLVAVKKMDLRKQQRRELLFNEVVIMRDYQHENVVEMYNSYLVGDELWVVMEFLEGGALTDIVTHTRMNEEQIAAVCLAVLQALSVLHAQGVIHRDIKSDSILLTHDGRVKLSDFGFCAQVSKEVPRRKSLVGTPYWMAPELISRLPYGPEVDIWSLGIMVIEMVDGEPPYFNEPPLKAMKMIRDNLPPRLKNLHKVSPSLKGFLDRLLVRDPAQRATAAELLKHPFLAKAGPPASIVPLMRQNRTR
Sequence of RIPK2 (O43353 whole entry): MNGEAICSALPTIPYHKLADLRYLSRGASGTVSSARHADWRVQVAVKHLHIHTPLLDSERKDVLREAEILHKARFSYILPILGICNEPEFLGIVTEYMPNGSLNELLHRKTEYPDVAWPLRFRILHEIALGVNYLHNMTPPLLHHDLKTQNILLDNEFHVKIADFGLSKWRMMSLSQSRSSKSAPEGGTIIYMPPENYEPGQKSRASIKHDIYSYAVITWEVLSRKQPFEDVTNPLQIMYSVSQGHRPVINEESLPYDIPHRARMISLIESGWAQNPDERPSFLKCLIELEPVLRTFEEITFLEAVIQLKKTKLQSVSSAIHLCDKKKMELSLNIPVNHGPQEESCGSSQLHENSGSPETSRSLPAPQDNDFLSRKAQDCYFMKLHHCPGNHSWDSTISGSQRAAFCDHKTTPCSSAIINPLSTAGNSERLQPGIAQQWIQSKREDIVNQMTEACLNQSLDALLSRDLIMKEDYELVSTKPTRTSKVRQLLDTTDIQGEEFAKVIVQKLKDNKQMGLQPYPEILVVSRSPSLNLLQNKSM
Sequence of SRPK1 (Q96SB4 whole entry): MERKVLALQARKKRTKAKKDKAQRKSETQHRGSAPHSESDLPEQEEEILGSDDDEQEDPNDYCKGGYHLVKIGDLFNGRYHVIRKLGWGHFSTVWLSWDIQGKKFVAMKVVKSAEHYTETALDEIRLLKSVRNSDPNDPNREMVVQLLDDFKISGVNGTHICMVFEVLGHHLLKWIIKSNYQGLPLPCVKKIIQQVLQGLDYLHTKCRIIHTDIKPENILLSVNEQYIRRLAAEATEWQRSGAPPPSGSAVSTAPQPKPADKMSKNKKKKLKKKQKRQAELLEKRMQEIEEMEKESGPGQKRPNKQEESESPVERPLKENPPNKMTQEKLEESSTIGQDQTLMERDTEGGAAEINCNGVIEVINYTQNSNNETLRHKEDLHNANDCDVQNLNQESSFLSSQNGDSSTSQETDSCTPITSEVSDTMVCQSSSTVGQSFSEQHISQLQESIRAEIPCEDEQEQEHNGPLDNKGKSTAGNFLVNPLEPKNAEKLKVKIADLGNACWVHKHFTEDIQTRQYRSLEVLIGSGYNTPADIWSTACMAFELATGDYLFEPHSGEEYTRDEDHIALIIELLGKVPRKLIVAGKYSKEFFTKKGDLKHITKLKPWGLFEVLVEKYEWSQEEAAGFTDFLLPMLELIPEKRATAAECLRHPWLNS
Sequence of MST4 (Q9P289 whole entry): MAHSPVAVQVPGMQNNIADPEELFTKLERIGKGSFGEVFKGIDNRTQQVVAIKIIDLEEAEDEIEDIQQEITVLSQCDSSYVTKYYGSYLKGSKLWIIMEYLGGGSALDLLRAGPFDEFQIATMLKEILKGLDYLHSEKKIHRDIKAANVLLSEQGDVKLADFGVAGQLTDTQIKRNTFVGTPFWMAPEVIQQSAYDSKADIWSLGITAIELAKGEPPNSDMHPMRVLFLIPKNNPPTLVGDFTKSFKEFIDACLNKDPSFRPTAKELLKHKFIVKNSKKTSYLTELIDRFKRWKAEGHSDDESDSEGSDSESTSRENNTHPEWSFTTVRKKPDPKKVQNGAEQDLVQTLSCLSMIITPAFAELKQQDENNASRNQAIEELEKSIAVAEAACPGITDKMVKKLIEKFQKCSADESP

What does the source list for `COc1ccc2sc(-c3cncc(N)c3)nc2c1` [compound 1, 5-(5-Methoxybenzo[d]thiazol-2-yl)pyridin-3-amine]?
remaining activity at 1 µM (PAK4; PAK4, 1 μM): 109%; remaining activity at 100 µM (PAK4; PAK4, 100 μM): 54%; remaining activity at 1 µM (DAPK1; DAPK1, 1 μM): 103%; remaining activity at 100 µM (DAPK1; DAPK1, 100 μM): 58%; remaining activity at 1 µM (RIPK2; RIPK2, 1 μM): 104%; remaining activity at 100 µM (RIPK2; RIPK2, 100 μM): 20%; remaining activity at 1 µM (SRPK1; SRPK1, 1 μM): 108%; remaining activity at 100 µM (SRPK1; SRPK1, 100 μM): 55%; remaining activity at 1 µM (LKB1; LKB1, 1 μM): 109%; remaining activity at 100 µM (LKB1; LKB1, 100 μM): 161%; remaining activity at 1 µM (MST4; MST4, 1 μM): 101%; remaining activity at 100 µM (MST4; MST4, 100 μM): 72%; remaining activity at 1 µM (ULK2; ULK2, 1 μM): 101%; remaining activity at 100 µM (ULK2; ULK2, 100 μM): 50%

What does the source list for `COc1ccc2sc(-c3cncc(NC(C)=O)c3)nc2c1` [PST-001, N-(5-(5-Methoxybenzo[d]thiazol-2-yl)pyridin-3-yl)acetamide]?
remaining activity at 1 µM (PAK4): 116%; remaining activity at 100 µM (PAK4): 98%; remaining activity at 1 µM (DAPK1): 114%; remaining activity at 100 µM (DAPK1): 101%; remaining activity at 1 µM (RIPK2): 109%; remaining activity at 1 µM (SRPK1): 115%; remaining activity at 100 µM (SRPK1): 108%; remaining activity at 1 µM (LKB1): 123%; remaining activity at 100 µM (LKB1): 150%; remaining activity at 1 µM (MST4): 112%; remaining activity at 100 µM (MST4): 113%; remaining activity at 1 µM (ULK2): 111%; remaining activity at 100 µM (ULK2): 119%
